According to US12377083B2 (WUHAN LL SCIENCE AND TECHNOLOGY DEVELOPMENT CO., LTD., priority 2019, dated 2025):

Columns and labels:
Format in all cases: cell-based
[1] = molecular target: hLPAR1 (human lysophosphatidic acid receptor 1) (Homo sapiens, UniProt Q92633); assay: FLIPR assay of intracellular calcium increase induced by activation of hLPAR1 expressed in CHO-K1 cells; conditions: CHO-K1 cells expressing hLPAR1, agonist oleoyl-L-α-lysophosphatidic acid 1 μM; read-out: LPAR1 IC50
Method: The antagonist property of the compounds disclosed herein was determined using the FLIPR (fluorescence imaging plate reader) method, wherein the compounds are inhibitors for the intracellular calcium increase induced by activation of hLPAR1 (human lysophosphatidic acid receptor 1, accession No. NM_001401.4) expressed in CHO-K1 cells (Chinese hamster ovary cells K1, ATCC).
Cells at 250,000 cells/mL were seeded into a 96-well plate (25,000 cells/well) 18-24 h prior to the FLIPR experiment and then incubated overnight in a cell incubator. […] Each well was added with 75 μL of […] Fluo-4 AM fluorescent dye (Thermo, F14202) and then the cells were subjected to dye-loading incubation at 37° C. for 1.0 h. The 96-well plate was then washed once with buffer, added with a buffer containing a test compound or a vehicle at 50 μL per well and then incubated for 30 min at room temperature. […] An agonist (oleoyl-L-α-lysophosphatidic acid sodium salt (Sigma, L7260)) at a final concentration of 1 μM or a vehicle (ultrapure water) was then added at 50 μL/well, fluorescence values were measured for 2 min at 1-second intervals, and finally the output fluorescence counts were analyzed.

[2] = tested on: A2058 (human melanoma cells); assay: A2058 cell scratch (migration) assay with LPA; conditions: 10 μM LPA, scratch area at 24 h
Method: The activity of the compounds disclosed herein at the cell level in vitro is evaluated by A2058 (human melanoma cells, Beina Bio, BNCC341099) cell scratch assay. The inhibitory activity of the compounds against LPAR1 can be reflected by inhibition of cell scratch healing.
After the cell confluence reached 80%, the cell culture plate was taken out and the original medium was discarded. Serum-free medium was then added, and the cells were starved overnight in an incubator (37° C., 5% CO2). The cell culture plate was then taken out, and cell scratches were made along the diameter of the wells using a 200 μL pipette tip. The cell culture plate was then added with 500 μL of serum-free medium and then shaken gently to wash away the residual cells on the scratched surface, and this was repeated twice. The medium was discarded and 500 μL of 1% FBS medium containing the compound was then added, and the mixture was incubated at 37° C. for 30 min. […] Olympus CKX53 was used to observe the scratches, and MShot image analysis system was used to take pictures and measure the scratch area at 0 h. The plate was incubated in the incubator under the conditions of 37° C. and 5% CO2. 24 h later, the scratches were observed again with Olympus CKX53, and MShot image analysis system was used to take pictures and measure the scratch area at 24 h. Cell migration inhibition rate was calculated according to the following formula: […]

[3] = In vitro cytotoxicity assay in HepG2 cells, CCK-8 method; conditions: human
Method: In vitro cytotoxicity assay for the compounds disclosed herein was performed in HepG2 cells using the CCK-8 method. HepG2 cells (Beina Bio) in the logarithmic growth phase were collected, the concentration of cell suspension was adjusted, and then the cells were plated on a 96-well cell culture plate at 50,000 cells/well. The cells were then incubated overnight in a cell incubator (5% CO2, 37° C.), and after 80-90% cell confluence was achieved, test compounds or vehicle (DMSO) at various concentration gradients were added after medium change. The resulting mixture was incubated in the cell incubator (5% CO2, 37° C.) for 48 h. After the treatment, the medium in the plate was discarded. The plate was washed twice with PBS, added with CCK-8 working solution (Beyotime) at 100 μL per well, and then incubated at 37° C. for 1.5 h away from the light. Absorbance at OD450 nm was measured for each well on a microplate reader, and CC50 value of each compound was analyzed and calculated.

Chain of hLPAR1 (human lysophosphatidic acid receptor 1) (Q92633 whole entry): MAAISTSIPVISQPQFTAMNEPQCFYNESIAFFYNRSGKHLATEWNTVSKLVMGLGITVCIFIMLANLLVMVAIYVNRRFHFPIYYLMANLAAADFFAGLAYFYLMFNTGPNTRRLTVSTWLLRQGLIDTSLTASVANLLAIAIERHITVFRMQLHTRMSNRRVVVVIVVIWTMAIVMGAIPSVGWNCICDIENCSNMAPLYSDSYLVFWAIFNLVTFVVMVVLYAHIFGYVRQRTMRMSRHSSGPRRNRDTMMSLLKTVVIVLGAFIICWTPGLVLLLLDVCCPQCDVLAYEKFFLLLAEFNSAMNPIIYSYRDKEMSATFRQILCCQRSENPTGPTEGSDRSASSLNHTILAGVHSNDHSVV

| IC50 [1] | Compound | Cell migration inhibition rate (%) [2] | CC50 at 48 h [3] |
| --- | --- | --- | --- |
| 0.3 to 10 µM | CN(C(=O)OCc1nocc1-c1ccc(O[C@H]2CCC[C@H](C(=O)O)C2)cc1)C1CCCC1 (racemic) [Compound 9, (+/−)-(1S,3S)-3-(4-(3-(((cyclopentyl(methyl)carbamoyl)oxy)methyl)isoxazol-4-yl)phenoxy)cyclohexane-1-carboxylic Acid] | C (C: 0-30%) | > 200 µM |
| 0.3 to 10 µM | Cc1nc(COC(=O)N(C)C2CCCC2)c(-c2ccc(O[C@H]3CCC[C@H](C(=O)O)C3)cc2)s1 (racemic) [Compound 10, (+/−)-(1S,3S)-3-(4-(4-(((cyclopentyl(methyl)carbamoyl)oxy)methyl)-2-methylthiazol-5-yl)phenoxy)cyclohexane-1-carboxylic Acid] | C (C: 0-30%) | > 200 µM |
| 0.3 to 10 µM | CN(C(=O)OCc1c(-c2ccc(O[C@H]3CCC[C@H](C(=O)O)C3)cc2)ncn1C)C1CCCC1 (racemic) [Compound 12, (+/−)-(1S,3S)-3-(4-(5-(((cyclopentyl(methyl)carbamoyl)oxy)methyl)-1-methyl-1H-imidazol-4-yl)phenoxy)cyclohexane-1-carboxylate] | C (C: 0-30%) | > 200 µM |
| 0.05 to 0.3 µM | Cc1nc(-c2ncn(C)c2COC(=O)N(C)C2CCCC2)ccc1O[C@H]1CCC[C@H](C(=O)O)C1 (racemic) [Compound 17, (+/−)-(1S,3S)-3-((6-(5-(((cyclopentyl(methyl)carbamoyl)oxy)methyl)-1-methyl-1H-imidazol-4-yl)-2-methylpyridin-3-yl)oxy)cyclohexane-1-carboxylic Acid] | C (C: 0-30%) | > 200 µM |
| 0.3 to 10 µM | Cc1noc(-c2ccc(O[C@H]3CCC[C@H](C(=O)O)C3)cn2)c1COC(=O)N(C)C1CC1 (racemic) [Compound 106] | B (B: 30-50%) |  |
| 0.05 to 0.3 µM | CN(C(=O)OCc1c(-c2ccc(O[C@H]3CCC[C@H](C(=O)O)C3)c(F)n2)cnn1C)C1CCC1 (racemic) [Compound 109, (+/−)-(1S,3S)-3-((6-(5-(((cyclobutyl(methyl)carbamoyl)oxy)methyl)-1-methyl-1H-pyrazol-4-yl)-2-fluoropyridin-3-yl)oxy)cyclohexane-1-carboxylic Acid] | A (A: 50-70%) |  |
| 0.05 to 0.3 µM | CN(C(=O)OCc1c(-c2ccc(O[C@H]3CCC[C@H](C(=O)O)C3)c(C#N)n2)cnn1C)C1CCC1 (racemic) [Compound 112, (+/−)-(1S,3S)-3-((2-cyano-6-(5-(((cyclobutyl(methyl)carbamoyl)oxy)methyl)-1-methyl-1H-pyrazol-4-yl)pyridin-3-yl)oxy)cyclohexane-1-carboxylic Acid] | B (B: 30-50%) |  |
| 0.3 to 10 µM | CN(C(=O)OCc1c(-c2ccc(O[C@H]3CCC[C@H](C(=O)O)C3)c(N)n2)cnn1C)C1CCC1 (racemic) [Compound 113, (+/−)-(1S,3S)-3-((2-amino-6-(5-(((cyclobutyl(methyl)carbamoyl)oxy)methyl)-1-methyl-1H-pyrazol-4-yl)pyridin-3-yl)oxy)cyclohexane-1-carboxylic Acid] | C (C: 0-30%) |  |
| 0.3 to 10 µM | CN(C(=O)OCc1c(-c2ccc(O[C@H]3CCC[C@H](C(=O)O)C3)c(CO)n2)cnn1C)C1CCC1 (racemic) [Compound 116, (+/−)-(1S,3S)-3-((6-(5-(((cyclobutyl(methyl)carbamoyl)oxy)methyl)-1-methyl-1H-pyrazol-4-yl)-2-(hydroxymethyl)pyridin-3-yl)oxy)cyclohexane-1-carboxylic Acid] | B (B: 30-50%) |  |
| 0.3 to 10 µM | Cc1nc(-c2cnn(C)c2COC(=O)N(C)C2CCOCC2)ccc1O[C@H]1CCC[C@H](C(=O)O)C1 [Compound 95, (1S,3S)-3-((2-methyl-6-(1-methyl-5-(((methyl(tetrahydro-2H-pyran-4-yl)carbamoyl)oxy)methyl)-1H-pyrazol-4-yl)pyridin-3-yl)oxy)cyclohexane-1-carboxylic Acid] | C (C: 0-30%) |  |
| < 0.05 µM | CN(C(=O)OCc1c(-c2cnc(O[C@H]3CCC[C@H](C(=O)O)C3)c(Cl)n2)cnn1C)C1CCCC1 [Compound 105] | B (B: 30-50%) |  |

Further lines, the compound ahead of its results:

| Compound | IC50 [1] | Cell migration inhibition rate (%) [2] | CC50 at 48 h [3] |
| --- | --- | --- | --- |
| CN(Cc1ccccc1)C(=O)OCc1ocnc1-c1ccc(O[C@H]2CCC[C@H](C(=O)O)C2)cc1 (racemic) [Compound 1, (+/−)-(1S,3S)-3-(4-(5-(((benzyl(methyl)carbamoyl)oxy)methyl)oxazol-4-yl)phenoxy)cyclohexane-1-carboxylic Acid] | 0.3 to 10 µM | C (C: 0-30%) | > 200 µM |
| CN(Cc1ccccc1)C(=O)OCc1c(-c2ccc(O[C@H]3CCC[C@H](C(=O)O)C3)cc2)cnn1C (racemic) [Compound 2, (+/−)-(1S,3S)-3-(4-(5-(((benzyl(methyl)carbamoyl)oxy)methyl)-1-methyl-1H-pyrazol-4-yl)phenoxy)cyclohexane-1-carboxylic Acid] | 0.3 to 10 µM | C (C: 0-30%) | > 200 µM |
| CN(C(=O)OCc1ccccc1-c1ccc(O[C@H]2CCC[C@H](C(=O)O)C2)cc1)C1CCCC1 (racemic) [Compound 21, (+/−)-(1S,3S)-3-((2′-(((cyclopentyl(methyl)carbamoyl)oxy)methyl)-[1,1′-biphenyl]-4-yl)oxy)cyclohexane-1-carboxylate] | 0.3 to 10 µM | C (C: 0-30%) | > 200 µM |
| Cc1noc(-c2ccc(O[C@H]3CCC[C@H](C(=O)O)C3)cn2)c1COC(=O)N(C)C1CCCC1 (racemic) [Compound 35, (+/−)-(1S,3S)-3-((6-(4-(((cyclopentyl(methyl)carbamoyl)oxy)methyl)-3-methylisoxazol-5-yl)pyridin-3-yl)oxy)cyclohexane-1-carboxylic Acid] |  | B (B: 30-50%) | > 200 µM |
| CN(C(=O)OCc1c(-c2ccc(O[C@H]3CCC[C@H](C(=O)O)C3)c(F)n2)cnn1C)C1CC1 (racemic) [Compound 108, (+/−) (1S,3S)-3-((6-(5-(((cyclopropyl(methyl)carbamoyl)oxy)methyl)-1-methyl-1H-pyrazol-4-yl)-2-fluoropyridin-3-yl)oxy)cyclohexane-1-carboxylic Acid] | 0.3 to 10 µM | B (B: 30-50%) |  |
| CN(CC1CC1)C(=O)OCc1c(-c2ccc(O[C@H]3CCC[C@H](C(=O)O)C3)c(F)n2)cnn1C (racemic) [Compound 110, (+/−)-(1S,3S)-3-((6-(5-((((cyclopropylmethyl)(methyl)carbamoyl)oxy)methyl)-1-methyl-1H-pyrazol-4-yl)-2-fluoropyridin-3-yl)oxy)cyclohexane-1-carboxylic Acid] | 0.05 to 0.3 µM | B (B: 30-50%) |  |
| CN(C(=O)OCc1c(-c2ccc(O[C@H]3CCC[C@H](C(=O)O)C3)c(O)n2)cnn1C)C1CCCC1 (racemic) [Compound 114, (+/−)-(1S,3S)-3-((6-(5-(((cyclopentyl(methyl)carbamoyl)oxy)methyl)-1-methyl-1H-pyrazol-4-yl)-2-hydroxypyridin-3-yl)oxy)cyclohexane-1-carboxylic Acid] | 0.3 to 10 µM | C (C: 0-30%) |  |
| CN(C(=O)COc1c(-c2ccc(O[C@H]3CCC[C@H](C(=O)O)C3)c(N3CCOCC3)n2)cnn1C)C1CCC1 (racemic) [Compound 115] | 0.3 to 10 µM | C (C: 0-30%) |  |
| CN(C(=O)OCc1c(-c2cnc(O[C@H]3CCC[C@H](C(=O)O)C3)c(O)n2)cnn1C)C1CCCC1 (racemic) [Compound 117] | 0.3 to 10 µM | B (B: 30-50%) |  |
